Assay results taken from patent publication US10760052B2, “Method of inhibiting tau phosphorylation” (priority 2012, dated 2020).
Like-named read-outs stand apart in the source and are kept apart here.

Molecular target: T1, mu opiate receptor (MOR) (Rattus norvegicus, UniProt P33535)
T1 construct: from tissue; host or cells: striatum (membrane preparation)
Type: biochemical

[1] = [35S]GTPγS binding to Gαo in striatal membranes, compound 0.1 μM
[2] = [35S]GTPγS binding to Gαo in striatal membranes, compound 1 μM
[3] = [35S]GTPγS binding to Gαo in striatal membranes, compound 1 μM plus 1 μM β-funaltrexamine (MOR antagonist)
[4] = 0.1 μM compound, striatal membranes, Series C-2
[5] = 1 μM compound + 1 μM β-FNA (selective MOR antagonist), Series C-2
[6] = 1 μM compound, striatal membranes, Series C-2

T1 sequence (P33535 whole entry): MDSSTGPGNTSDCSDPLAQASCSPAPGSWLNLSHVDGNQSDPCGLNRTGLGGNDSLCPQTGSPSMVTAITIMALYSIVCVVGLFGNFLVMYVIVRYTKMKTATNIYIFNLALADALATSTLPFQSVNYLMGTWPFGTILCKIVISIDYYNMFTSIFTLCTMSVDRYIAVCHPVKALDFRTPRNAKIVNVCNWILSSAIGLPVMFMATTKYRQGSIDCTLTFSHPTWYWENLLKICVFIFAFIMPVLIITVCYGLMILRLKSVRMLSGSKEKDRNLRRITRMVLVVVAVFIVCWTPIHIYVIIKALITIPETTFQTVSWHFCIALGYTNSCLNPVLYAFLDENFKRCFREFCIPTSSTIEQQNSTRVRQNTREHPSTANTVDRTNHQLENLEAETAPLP

SMILES	% DAMGO (0.1 μM) [%]	% DAMGO (1 μM) [%]	% DAMGO + BFNA [%]	Concentration of FLNA-Binding Compound as Agonist 0.1 μM [1] [%]	Concentration of FLNA-Binding Compound as Agonist 1 μM [2] [%]	Concentration of FLNA-Binding Compound as Agonist 1 μM + BFNA [3] [%]	[35S]GTPγS binding, FLNA-Binding Compound as Agonist at 0.1 μM [4] [%]	[35S]GTPγS binding, FLNA-Binding Compound as Agonist at 1 μM + BFNA [5] [%]	[35S]GTPγS binding, FLNA-Binding Compound as Agonist at 1 μM [6] [%]	Concentration of FLNA-Binding Compound as Agonist 0.1 μM [%]	Concentration of FLNA-Binding Compound as Agonist 1 μM [%]	Concentration of FLNA-Binding Compound as Agonist 1 μM + BFNA [%]	[35S]GTPγS binding, FLNA-Binding Compound as Agonist at 0.1 μM [%]	[35S]GTPγS binding, FLNA-Binding Compound as Agonist at 1 μM [%]	[35S]GTPγS binding, FLNA-Binding Compound as Agonist at 1 μM + BFNA [%]
COc1c2c(cc3c1C(CC(=O)CCc1ccc(F)cc1)[N+](C)(C)CC3)OCO2 (stereo not drawn) [Compound B0018]	70.3	53.5	69.1	118.8	143.0	45.6									
COc1ccc(S(=O)(=O)N2CCC3(OCCN3S(=O)(=O)c3ccc(OC)cc3)C3CCCCC32)cc1 (stereo not drawn) [Compound C0144M]	108.3	90.8	137.9	186.3	295.9	125.9									
CN1CCC2(CC1)NC(=O)CN2Cc1ccccc1 [Compound C0104M]	99.5	96.3	296.5				188.2	143.8	238.9						
CC(=O)c1ccc(S(=O)(=O)N2CCOC23CCN(CC2CC2)CC3)cc1 [Compound C0095M]	107.4	88.8	489.5				189.1	107.7	224.6						
CC(=O)c1ccc(S(=O)(=O)N2CCC3(CC2)OC(CN(C)C)CN3S(=O)(=O)c2ccc(C(C)=O)cc2)cc1 (stereo not drawn) [Compound C0065]	127.0	121.3	119.5	198.3	279.5	47.7									
COc1ccccc1S(=O)(=O)N1CCC2(CC1)OCCN2S(=O)(=O)c1ccccc1OC [Compound C0003]	91.9	83.3	163.9	162.3	215.9	107.7									
CC(=O)c1ccc(C(=O)N2CCC3(CC2)OCCN3C(=O)c2ccc(C(C)=O)cc2)cc1 [Compound C0054]	47.0	54.5	98.9	68.2	127.0	43.5									
COc1ccc(S(=O)(=O)N2CCC3(CC2)OCCN3S(=O)(=O)c2ccc(C(C)=O)cc2)cc1 [Compound C0048]	144.2	105.3	204.3							209.1	245.3	89.9			
OC(COc1ccc(Br)c(F)c1)CN1CCCCC1 (stereo not drawn) [Compound A0058]	45.3	106.0	150.1	70.7	244.3	59.9									
COc1c2c(cc3c1C(CC(=O)Cc1ccc(Br)cc1)[N+](C)(C)CC3)OCO2 (stereo not drawn) [Compound B0011]	95.7	78.7	120.0	158.6	212.6	78.0									
CC(=O)c1ccc(S(=O)(=O)N2CCC3(CC2)NC(=O)CN3Cc2ccccc2)cc1 [Compound C0085M]	105.5	78.4	112.6	211.6	246.2	43.7									
O=C1CN(C2CCc3ccccc3C2)C2(CCN(S(=O)(=O)c3ccccc3)CC2)N1 (stereo not drawn) [C0136M(P5)]	93.4	95.6	153.6				176.8	74.5	237.3						
COc1ccc(S(=O)(=O)N2CCC3(CC2)OCCN3S(=O)(=O)c2ccc(OC)cc2)cc1 [Compound 7866]	79.3	94.8	129.5	152.3	308.2	62.4									
CC1CN(CC(O)COc2ccccc2Br)CC(C)O1 (stereo not drawn) [Compound A0043]	93.4	81.1	120.6	183.3	223.8	89.1									
CC1CCC(C(C)C)C(OCC(O)Cn2cccc2)C1 (stereo not drawn) [Compound A0038]	90.1	85.0	144.8	176.7	234.5	107.0									
CC1CCC(C(C)C)C(OCC(O)CN2CCSCC2)C1 (stereo not drawn) [Compound A0003]	118.3	119.9	64.5							176.8	276.0	17.1			
O=S(=O)(c1csc2ccccc12)N1CCC2(CC1)OCCN2S(=O)(=O)c1csc2ccccc12 [Compound C0150M]	97.2	129.8	173.2	167.1	423.1	93.4									
O=C1CN(Cc2ccccc2)C2(CCN(S(=O)(=O)c3cc(Cl)c(O)c(Cl)c3)CC2)N1 [Compound C0139M]	106.2	102.2	129.8	156.1	206.6	51.0									
COc1ccc(C(=O)CC2c3c(cc4c(c3OC)OCO4)CC[N+]2(C)C)cc1 (stereo not drawn) [Compound B0024]	93.2	116.7	58.2	155.8	285.9	20.2									
CCN1CCC2(CC1)OCCN2S(=O)(=O)c1ccc(OC)cc1 [Compound C0089M]	136.3	134.4	237.4				234.5	81.9	295.3						
CS(=O)(=O)c1ccc(S(=O)(=O)N2CCOC23CCNCC3)cc1 [Compound C0116M]	136.6	122.0	313.4										258.4	302.8	152.0
Cc1ccc(S(=O)(=O)N2CCC3(CC2)OCCN3S(=O)(=O)c2ccc(C)cc2)cc1 [Compound C0001]	75.2	66.6	52.9	129.3	184.3	33.9									
COc1ccc(S(=O)(=O)N2CCOC23CCNCC3)cc1 [Compound C0027]	121.3	115.0	164.5				233.2	72.2	313.9						
O=S(=O)(c1ccc(C(F)(F)F)cc1Br)N1CCC2(CC1)OCCN2S(=O)(=O)c1ccc(C(F)(F)F)cc1Br [Compound C0071]	160.5	161.7	513.3	276.3	355.3	177.1									
COc1c2c(cc3c1C(CC(=O)c1ccc(N4CCOCC4)cc1)[N+](C)(C)CC3)OCO2 (stereo not drawn) [Compound B0004]	102.8	85.8	110.8	170.3	231.7	72.0									
O=S(=O)(c1ccc(C(F)(F)F)cc1)N1CCC2(CC1)OCCN2S(=O)(=O)c1ccc(C(F)(F)F)cc1 [Compound C0012]	54.8	86.7	280.7	96.8	224.8	184.4									
COc1ccc(C(=O)N2CCC3(CC2)OCCN3C(=O)c2ccc(OC)cc2)cc1 [Compound C0017]	87.1	109.7	143.2	153.8	284.5	94.1									
